Results reported in ChEMBL document CHEMBL1131844, “Substituted indoles as potent and orally active 5-lipoxygenase activating protein (FLAP) inhibitors” (Bioorg Med Chem Lett, 1999).

How the values were obtained:
[1] = molecular target: T1, Arachidonate 5-lipoxygenase-activating protein (Homo sapiens, UniProt P20292); assay: Measuring the affinity of leukotriene synthesis inhibitor for 5-lipoxygenase activating protein by using [125I]L-691831 as radioligand.
T1 sequence (P20292 whole entry): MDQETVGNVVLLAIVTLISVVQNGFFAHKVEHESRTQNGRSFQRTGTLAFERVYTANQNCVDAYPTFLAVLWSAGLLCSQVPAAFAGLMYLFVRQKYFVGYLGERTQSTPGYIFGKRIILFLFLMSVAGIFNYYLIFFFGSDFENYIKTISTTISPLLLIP

[2] = plasma level at 2 hr after administration of the compound; type: ADME, organism-based; settings: rat
[3] = Bioavailability in rat; type: ADME, organism-based; settings: in vivo
Homo sapiens [4] = species: Homo sapiens; assay: The drug dependent inhibition of LTB4 biosynthesis in human whole blood (HWB) activated with the ionophore A-23187; type: functional, organism-based
Rattus norvegicus [5] = assay: In vivo inhibitory activity against LTB4 biosynthesis by rat pleurisy model (v3h pre treatment time periods); type: functional
Homo sapiens [6] = species: Homo sapiens; assay: In vitro inhibition of LTB4 biosynthesis in Ca++ ionophore activated human polymorphonuclear (HPMN) leukocytes.; type: functional
Rattus norvegicus [7] = assay: Compound was evaluated in vivo for its functional activity(in percent) in a hyperreactive rat model of dyspnea; set-up: concentration or dose not given beside the values
Rattus norvegicus [8] = assay: In vivo inhibitory activity against LTB4 biosynthesis by rat pleurisy model (3 pre treatment time periods); type: functional
Rattus norvegicus [9] = assay: In vivo inhibitory activity against LTB4 biosynthesis by rat pleurisy model (3h pre treatment time periods); type: functional
Rattus norvegicus [10] = assay: In vivo inhibitory activity against LTB4 biosynthesis by rat pleurisy model (6h pre treatment time periods); type: functional
Rattus norvegicus [11] = assay: In vivo inhibitory activity against LTB4 biosynthesis by rat pleurisy model (1 pre treatment time periods); type: functional
[12] = Plasma level at 2 hr after administration of the compound; type: ADME, organism-based; settings: rat
Canis familiaris [13] = assay: Inhibition of ex vivo urinary leukotriene E4 (LTE4) excretion from A-23,187-challenged dog after intravenous infusion of 2.5 ug/kg/min; type: functional; settings: Canis lupus familiaris, Urine
Canis familiaris [14] = assay: Inhibition of ex vivo leukotriene B4 (LTB4) in whole blood of A-23,187-challenged dog after intravenous infusion of 2.5 ug/kg/min; type: functional; settings: Canis lupus familiaris
Rattus norvegicus [15] = assay: In vivo inhibitory activity against LTB4 biosynthesis by rat pleurisy model (2h pre treatment time period); type: functional
Rattus norvegicus [16] = assay: In vivo inhibitory activity against LTB4 biosynthesis by rat pleurisy model (6 pre treatment time periods); type: functional

Row | SMILES | IC50 [1] [µM] | IC50 (Homo sapiens [4]; Homo sapiens, Blood) [µM] | IC50 (Homo sapiens [6]; Homo sapiens) [µM] | further results
1 | CC(C)(C)Sc1c(CC(C)(C)C(=O)O)n(Cc2ccc(Cl)cc2)c2ccc(OCc3cscn3)cc12 | 0.005 | 0.27 | 0.003 | concentration at 2 h [2]: 8 µM; bioavailability [3]: 98%; ED50 (Rattus norvegicus [5]): 0.12 mg/kg; Functional activity in dyspnea model (Rattus norvegicus [7]): 61%
2 | CC(C)(C)Sc1c(CC(C)(C)C(=O)O)n(Cc2ccc(Cl)cc2)c2ccc(OCc3nc4cc(C(F)(F)F)ccc4s3)cc12 | 0.186 | > 3 | 0.022 | –
3 | CC(C)(C)Sc1c(CC(C)(C)C(=O)O)n(Cc2ccc(Cl)cc2)c2ccc(COCc3ccc4ccccc4n3)cc12 | 0.026 | > 3 | > 0.018 | –
4 | CC(C)(C)Sc1c(CC(C)(C)C(=O)O)n(Cc2ccc(Cl)cc2)c2ccc(OCc3cc4ccccc4cn3)cc12 | 0.01 | > 3 | 0.003 | –
5 | CC(C)(C)Sc1c(CC(C)(C)C(=O)O)n(Cc2ccc(Cl)cc2)c2ccc(OCc3cnc4ccccc4c3)cc12 | 0.048 | – | – | –
6 | CC(C)(C)Sc1c(CC(C)(C)C(=O)O)n(Cc2ccc(Cl)cc2)c2c(OCc3ccc4ccccc4n3)cccc12 | 1.95 | – | – | –
7 | COc1ccc2nc(COc3ccc4c(c3)c(SC(C)(C)C)c(CC(C)(C)C(=O)O)n4Cc3ccc(Cl)cc3)sc2c1 | 0.073 | 0.67 | 0.008 | –
8 | C[C@H](COc1ccc2c(c1)c(SC(C)(C)C)c(CC(C)(C)C(=O)O)n2Cc1ccc(Cl)cc1)c1ccccn1 | 0.012 | 0.47 | 0.003 | –
9 | CC(C)(C)Sc1c(CC(C)(C)C(=O)O)n(Cc2ccc(Cl)cc2)c2ccc(OCc3nc4ccccc4s3)cc12 | 0.002 | 0.26 | 0.003 | concentration at 2 h [2]: 6 µM; bioavailability [3]: 81%; ED50 (Rattus norvegicus [8]): 0.85 mg/kg; Functional activity in dyspnea model (Rattus norvegicus [7]): 45%
10 | CC(C)(C)Sc1c(CC(C)(C)C(=O)O)n(Cc2ccc(Cl)cc2)c2ccc(OCc3ccccn3)cc12 | 0.003 | 0.13 | 0.002 | concentration at 2 h [2]: 9 µM; bioavailability [3]: 48%; ED50 (Rattus norvegicus [9]): 0.3 mg/kg; ED50 (Rattus norvegicus [10]): 0.09 mg/kg; Functional activity in dyspnea model (Rattus norvegicus [7]): 77%
11 | CC(C)(C)Sc1c(CC(C)(C)C(=O)O)n(Cc2ccc(Cl)cc2)c2ccc(OCc3ccncc3)cc12 | 0.048 | > 3 | 0.006 | –
12 | CC(C)(C)Sc1c(CC(C)(C)C(=O)O)n(Cc2ccc(Cl)cc2)c2ccc(OCc3cccc(Cl)n3)cc12 | 0.008 | 0.41 | 0.003 | concentration at 2 h [2]: 3.5 µM; bioavailability [3]: 37%; Functional activity in dyspnea model (Rattus norvegicus [7]): 34%
13 | CC(C)(C)Sc1c(CC(C)(C)C(=O)O)n(Cc2ccc(Cl)cc2)c2ccc(OCc3cccnc3)cc12 | 0.059 | > 3 | 0.008 | –
14 | CC(C)(C)Sc1c(CC(C)(C)C(=O)O)n(Cc2ccc(Cl)cc2)c2ccc(OCc3ccc4cnccc4n3)cc12 | 0.002 | 0.98 | 0.003 | –
15 | CC(C)(C)Sc1c(CC(C)(C)C(=O)O)n(Cc2ccc(Cl)cc2)c2cc(OCc3ccc4ccccc4n3)ccc12 | 0.428 | – | – | –
16 | CC(C)(C)Sc1c(CC(C)(C)C(=O)O)n(Cc2ccc(Cl)cc2)c2cccc(OCc3ccc4ccccc4n3)c12 | 0.085 | – | – | –
17 | CC(C)(C)Sc1c(CC(C)(C)C(=O)O)n(Cc2ccc(Cl)cc2)c2ccc(OCc3ccc4cc(F)ccc4n3)cc12 | 0.002 | 0.88 | 0.002 | –
18 | CC(C)(C)Sc1c(CC(C)(C)C(=O)O)n(Cc2ccc(Cl)cc2)c2ccc(OCc3ccc4c(n3)CCCC4)cc12 | 0.008 | 2.89 | 0.003 | –

Row | SMILES | IC50 [1] [µM] | IC50 (Homo sapiens [4]; Homo sapiens, Blood) [µM] | IC50 (Homo sapiens [6]; Homo sapiens) [µM] | further results
19 | Cc1nc2ccc(COc3ccc4c(c3)c(SC(C)(C)C)c(CC(C)(C)C(=O)O)n4Cc3ccc(Cl)cc3)cc2s1 | 0.04 | > 3 | 0.006 | –
20 | CC(C)(C)Sc1c(CC(C)(C)C(=O)O)n(Cc2ccc(Cl)cc2)c2ccc(OCc3nc4ccccc4o3)cc12 | 0.005 | 2.5 | < 0.007 | –
21 | CC(C)(C)Sc1c(CC(C)(C)C(=O)O)n(Cc2ccc(Cl)cc2)c2ccc(OCc3cnccn3)cc12 | 0.007 | 0.4 | 0.004 | –
22 | CC(C)(C)Sc1c(CC(C)(C)C(=O)O)n(Cc2ccc(Cl)cc2)c2ccc(OCc3ccc4cc(F)c(F)cc4n3)cc12 | 0.014 | > 3 | 0.007 | –
23 | CC(C)(C)Sc1c(CC(C)(C)C(=O)O)n(Cc2ccc(Cl)cc2)c2ccc(/C=C/c3ccc4ccccc4n3)cc12 | 0.011 | > 3 | 0.012 | –
24 | CC(C)(C)Sc1c(CC(C)(C)C(=O)O)n(Cc2ccc(Cl)cc2)c2ccc(OCc3ccnc4ccccc34)cc12 | 0.062 | – | – | –
25 | CC(C)c1csc(COc2ccc3c(c2)c(SC(C)(C)C)c(CC(C)(C)C(=O)O)n3Cc2ccc(Cl)cc2)n1 | 0.013 | > 3 | 0.003 | –
26 | CC(C)(C)Sc1c(CC(C)(C)C(=O)O)n(Cc2ccc(Cl)cc2)c2ccc(OCc3cccs3)cc12 | 0.07 | > 3 | 0.004 | –
27 | CC(COc1ccc2c(c1)c(SC(C)(C)C)c(CC(C)(C)C(=O)O)n2Cc1ccc(Cl)cc1)c1ccccn1 (centres undefined) | 0.008 | 0.27 | 0.004 | –
28 | CC(C)(C)Sc1c(CC(C)(C)C(=O)O)n(Cc2ccc(Cl)cc2)c2ccc(OCc3ccc4cccnc4n3)cc12 | 0.002 | > 3 | 0.006 | –
29 | CCCC(Oc1ccc2c(c1)c(SC(C)(C)C)c(CC(C)(C)C(=O)O)n2Cc1ccc(Cl)cc1)c1ccc2ccccc2n1 (centres undefined) | 0.35 | > 3 | > 0.052 | –
30 | CC(C)(C)Sc1c(CC(C)(C)C(=O)O)n(Cc2ccc(Cl)cc2)c2ccc(CCc3ccc4ccccc4n3)cc12 | 0.016 | > 3 | 0.004 | –
31 | Cc1nc(COc2ccc3c(c2)c(SC(C)(C)C)c(CC(C)(C)C(=O)O)n3Cc2ccc(Cl)cc2)cs1 | 0.003 | 0.13 | 0.002 | concentration at 2 h [2]: 8 µM; bioavailability [3]: 98%; ED50 (Rattus norvegicus [9]): 0.15 mg/kg; Functional activity in dyspnea model (Rattus norvegicus [7]): 48%
32 | CC(Oc1ccc2c(c1)c(SC(C)(C)C)c(CC(C)(C)C(=O)O)n2Cc1ccc(Cl)cc1)c1ccc2ccccc2n1 (racemic) | 0.016 | – | – | IC50 (Homo sapiens [4]): 0.803 µM; IC50 (Homo sapiens [6]): 0.009 µM
33 | CC(Oc1ccc2c(c1)c(SC(C)(C)C)c(CC(C)(C)C(=O)O)n2Cc1ccc(Cl)cc1)c1ccc2ccccc2n1 (single isomer, unassigned; (-)) | 0.007 | – | – | concentration at 2 h [2]: 4.2 µM; bioavailability [3]: 48%; IC50 (Homo sapiens [4]): 0.362 µM; ED50 (Rattus norvegicus [11]): 1 mg/kg; IC50 (Homo sapiens [6]): 0.005 µM; Functional activity in dyspnea model (Rattus norvegicus [7]): 45%
34 | CC(Oc1ccc2c(c1)c(SC(C)(C)C)c(CC(C)(C)C(=O)O)n2Cc1ccc(Cl)cc1)c1ccc2ccccc2n1 (stereo in doubt; 6) | 0.116 | – | – | IC50 (Homo sapiens [4]): > 3 µM; IC50 (Homo sapiens [6]): 0.032 µM
35 | CC(C)(C)Sc1c(CC(C)(C)C(=O)O)n(Cc2ccc(Cl)cc2)c2ccc(OCc3ccc4ccccc4n3)cc12 [QUIFLAPON] | – | – | 0.004 | concentration at 2 h [12]: 2.5 µM; bioavailability [3]: 24%; inhibition in vivo at 2.5 µg/kg/min (Canis familiaris [13]): 71%; inhibition in vivo at 2.5 µg/kg/min (Canis familiaris [14]): 94%; ED50 (Rattus norvegicus [15]): 0.51 mg/kg; ED50 (Rattus norvegicus [16]): 0.15 mg/kg; Functional activity in dyspnea model (Rattus norvegicus [7]): 51%
